# Patent US11957760B2, “Folate receptor targeted nanoparticle drug conjugates and uses thereof” (priority 2020, dated 2024)
# Like-named read-outs stand apart in the source and are kept apart here.
# Legend:
# [1] = system: exatecan-resistant KB cells; test: IC50 assay in exatecan-resistant KB cells; assay type: cell-based, human; details: for IC50: Homo sapiens
# Protocol: To develop the TOP1 inhibitor resistant KB cells, the cells in flask (50-60% confluence) were repeatedly treated with increasing concentration of exatecan, topotecan, SN-38 or irinotecan for over 4 months. The starting TOP1 inhibitor treatment concentration was close to the KB cell's IC90 values.
# The following day, cells were treated with selected TOP1 inhibitors (e.g., free exatecan) or NDC at suitable concentration ranges. […] The resistant factor can be calculated by using the following equation: […]
# naïve KB cells = test: IC50 assay in naïve KB cells; assay type: cell-based; details: Homo sapiens; naïve (regular) KB cells
# Source text: (§1) Naïve human KB cell line were purchased from ATCC and maintained in folic acid free RPMI 1640 media/10% FBS, and 1% of penicillin/streptomycin. To develop the TOP1 inhibitor resistant KB cells, the cells in flask (50-60% confluence) were repeatedly treated with increasing concentration of exatecan, topotecan, SN-38 or irinotecan for over 4 months. The starting TOP1 inhibitor treatment concentration was close to the KB cell's IC90 values. After each treatment, the cells were carefully washed with fresh RPMI 1640 media and left to proliferate for an additional 2-3 days until reaching 50-60% confluence.
# (§2) Both naïve and TOP1 inhibitor resistant KB cell were cultured in folic acid-free medium (RPMI1640, ThermoFisher, GIBCO). Cells were plated in opaque 96-well plates at a density of 3×10^3 cells per well (total of 90 μL) and allowed to attach overnight. […] After exposing the TOP1 inhibitors with both types of cells for the same period of time, the cell viability was assessed using the CellTiter-Glo2.0 assay (Promega) according to manufacturer's instructions. Data for both viability and proliferation were plotted using Prism7 software (GraphPad). The resistant factor can be calculated by using the following equation:
# [2] = system: irinotecan-resistant KB cells; test: IC50 assay in irinotecan-resistant KB cells; assay type: cell-based, human
# Source text: as §1, §2
"IC50 ([2]; Homo sapiens, irinotecan-resistant KB cells)",SMILES,resistance of exatecan-resistant versus naïve KB cells [1],"IC50 ([1]; KB, KB cells pretreated 7× with exatecan)","IC50 ([1]; KB cells pretreated 4× with exatecan, read-out: IC50)",IC50 (naïve KB cells),resistance of irinotecan-resistant versus naïve KB cells [2]
–,CC[C@@]1(O)C(=O)OCc2c1cc1n(c2=O)Cc2c-1nc1cc(F)c(C)c3c1c2[C@@H](N)CC3 [exatecan],> 8 ×,16.9 nM,4 nM,2 nM,–
3620 nM,CCc1c2c(nc3ccc(OC(=O)N4CCC(N5CCCCC5)CC4)cc13)-c1cc3c(c(=O)n1C2)COC(=O)[C@]3(O)CC [irinotecan],–,–,–,668 nM,5 ×
